{"source": "patent US20260137668A1", "about": "“EZH2 INHIBITION THERAPIES FOR THE TREATMENT OF BRCA1-ASSOCIATED PROTEIN (BAP1) MUTATED CANCERS” (Constellation Pharmaceuticals, Inc., priority 2022, published 2026)", "key": {"[1]": {"tested_on": "pleural or peritoneal BAP1 loss mesothelioma", "test": "human clinical phase 2 study, Compound 1 monotherapy, response by cancer cohort", "assay_type": "in vivo", "conditions": "intermediate cut-off date", "description": "As part of a human clinical phase 2 study, subjects with pleural or peritoneal BAP1 loss mesothelioma were administered 350 mg/day Compound 1 for up to about 7.5 months (FIG. 1). Compound 1 was administered orally as a single agent (monotherapy). The cancers in each subject were known to have BAP1 mutations as determined by next generation sequencing (NGS) or local immunohistochemistry (IHC) testing prior to treatment. A complete response is characterized as disappearance of all lesions, a partial response is characterized as at least a 30% decrease in the sum of the longest diameter (LD) of target lesions, taking as reference the baseline sum LD; stable disease is characterized as neither sufficient shrinkage to qualify for partial response nor sufficient increase to qualify for progressive disease, taking as reference the smallest sum diameters; and progressive disease is characterized as at least a 20% increase in the sum of the LD of target lesions, taking as reference the smallest sum LD recorded since the treatment started or the appearance of one or more new lesions."}, "H2052": {"tested_on": "H2052", "test": "CellTiter-Glo 2.0 long-term cell viability assay", "assay_type": "cell-based", "conditions": "Homo sapiens, H2052, BAP1 wildtype", "description": "(§1) The ability of Compound 1 to selectivity suppress mesothelioma cancer cell viability was assessed in a panel of cell lines after 7, 14 and 21 days of treatment with Compound 1. Cell viability was determined using CellTiter-Glo®2 luminescent cell viability assay.\n(§2) Cell culture conditions. MSTO-211H, H2052, H2452, H28, H226 cell lines were obtained from ATCC (Manassas, VA) and were grown in media as recommended by the vendor. For long-term assays, cells were plated in 96-well plates containing. Compound 1. Cell lines were treated with a dose titration of Compound 1 starting at 2 μM top concentration.\n(§3) Cellular assay—assessment of cell viability. Relative cell numbers were assessed by CellTiter-Glo® 2.0 luminescent cell viability assay (Promega Catalog #G9243) using a Perkin Elmer EnVision Alpha Reader (Model #2104, Waltham, MA). 50 μL of CellTiter-Glo® 2.0 reagent was added to each well containing 100 μL cell suspension and incubated for 30 min at RT with shaking at low speed. GraphPad Prism was used for curve fitting and GI50 determinations."}, "H226": {"tested_on": "H226", "test": "CellTiter-Glo 2.0 long-term cell viability assay", "assay_type": "cell-based", "conditions": "Homo sapiens, H226, BAP1 mutant", "description": "as §1, §2, §3"}, "H2452": {"tested_on": "H2452", "test": "CellTiter-Glo 2.0 long-term cell viability assay", "assay_type": "cell-based", "conditions": "Homo sapiens, H2452, BAP1 mutant", "description": "as §1, §2, §3"}, "H28": {"tested_on": "H28", "test": "CellTiter-Glo 2.0 long-term cell viability assay", "assay_type": "cell-based", "conditions": "Homo sapiens, H28, BAP1 mutant", "description": "as §1, §2, §3"}, "MSTO-211H": {"tested_on": "MSTO-211H", "test": "CellTiter-Glo 2.0 long-term cell viability assay", "assay_type": "cell-based", "conditions": "Homo sapiens, BAP1 wildtype", "description": "as §1, §2, §3"}, "PXF 1118": {"tested_on": "PXF 1118", "test": "pleural mesothelioma PDX model, tumor growth inhibition", "assay_type": "in vivo, NMRI nu/nu mice", "conditions": "PXF 1118, 75 mg/kg p.o. QD; without a statistically significant reduction in tumor volume", "description": "(§4) Compound 1 was evaluated in 6 patient-derived xenograft (PDX) models of pleural mesothelioma with BAP1 alterations (Table 3) implanted subcutaneously in immunodeficient mice (NSG mice in the case of tumor model PXF 2328, NMRI nu/nu mice for all other tumor models). Each experiment had two groups of generally five mice each enrolled at tumor volumes in the range of 53.9-198.9 mm^3. The first group was a vehicle control group, while the second group was treated with Compound 1, administered orally (p.o.) once daily (QD) at a dose level of 75 mg/kg. The duration of the experiments ranged between 30 and 65 days.\n(§5) Antitumor efficacy of all groups was assessed using the vehicle control group as a reference. Tumor growth inhibition was determined by the comparison of tumor growth in the test groups with the vehicle control group and is expressed as the maximum tumor growth inhibition (TGI) value in percent. The statistical significance of differences between test and control groups was assessed using the non-parametric U-test."}, "PXF 2443": {"tested_on": "PXF 2443", "test": "pleural mesothelioma PDX model, tumor growth inhibition", "assay_type": "in vivo, NMRI nu/nu mice", "conditions": "PXF 2443, 75 mg/kg p.o. QD; without a statistically significant reduction in tumor volume", "description": "as §4, §5"}, "PXF 537": {"tested_on": "PXF 537", "test": "pleural mesothelioma PDX model, tumor growth inhibition", "assay_type": "in vivo, NMRI nu/nu mice", "conditions": "PXF 537, 75 mg/kg p.o. QD; statistically significant reduction in tumor volume vs control", "description": "as §4, §5"}, "PXF 541": {"tested_on": "PXF 541", "test": "pleural mesothelioma PDX model, tumor growth inhibition", "assay_type": "in vivo, NMRI nu/nu mice", "conditions": "PXF 541, 75 mg/kg p.o. QD; statistically significant reduction in tumor volume vs vehicle (U-test)", "description": "as §4, §5"}, "PXF 680": {"tested_on": "PXF 680", "test": "pleural mesothelioma PDX model, tumor growth inhibition", "assay_type": "in vivo, NMRI nu/nu mice", "conditions": "PXF 680, 75 mg/kg p.o. QD; statistically significant reduction in tumor volume vs vehicle (U-test)", "description": "as §4, §5"}, "PXF 2328": {"tested_on": "PXF 2328", "test": "pleural mesothelioma PDX model, tumor growth inhibition", "assay_type": "in vivo", "conditions": "PXF 2328 implanted in NSG mice, 75 mg/kg p.o. QD", "description": "as §4, §5"}, "[2]": {"tested_on": "pleural mesothelioma PDX models with BAP1 alterations", "test": "panel of 6 PDX models of pleural mesothelioma with BAP1 alterations", "assay_type": "in vivo, mice", "conditions": "75 mg/kg p.o. QD", "description": "as §4, §5"}, "[3]": {"conditions": "350 mg/day oral monotherapy, efficacy evaluable patients N = 9"}}, "data": [{"compound": "COC1CN([C@H]2CC[C@H]([C@@]3(C)Oc4c(Cl)cc(C(=O)NCc5c(SC)cc(C)[nH]c5=O)c(C)c4O3)CC2)C1", "note": "[Compound 1, (R)-7-chloro-2-((1r,4R)-4-(3-methoxyazetidin-1-yl)cyclohexyl)-2,4-dimethyl-N-((6-methyl-4-(methylthio)-2-oxo-1,2-dihydropyridin-3-yl)methyl)benzo[d][1,3]dioxole-5-carboxamide]", "values": [{"measurement": "Complete response", "setting": "[1]; [3]", "result": "0 n (%)"}, {"measurement": "Partial response", "setting": "[1]; [3]", "result": "2 (22.2) n (%)"}, {"measurement": "Progressive disease", "setting": "[1]; [3]", "result": "3 (33.3) n (%)"}, {"measurement": "Stable disease", "setting": "[1]; [3]", "result": "4 (44.4) n (%)"}, {"measurement": "patients showing (partial) response and stable disease", "setting": "[1]", "result": "> 60", "unit": "%"}, {"measurement": "GI50", "setting": "H2052; NCI-H2052, 168 h, Day 7", "result": "> 2000", "unit": "nM"}, {"measurement": "GI50", "setting": "H2052; NCI-H2052, 336 h, Day 14", "result": "> 2000", "unit": "nM"}, {"measurement": "GI50", "setting": "H2052; NCI-H2052, 504 h, Day 21", "result": "> 2000", "unit": "nM"}, {"measurement": "GI50", "setting": "H226; NCI-H226, 168 h, Day 7", "result": "> 2000", "unit": "nM"}, {"measurement": "GI50", "setting": "H226; NCI-H226, 336 h, Day 14", "result": "> 2000", "unit": "nM"}, {"measurement": "GI50", "setting": "H226; NCI-H226, 504 h, Day 21", "result": "> 2000", "unit": "nM"}, {"measurement": "GI50", "setting": "H2452; NCI-H2452, 168 h, Day 7", "result": "> 2000", "unit": "nM"}, {"measurement": "GI50", "setting": "H2452; NCI-H2452, 336 h, Day 14", "result": 6, "unit": "nM"}, {"measurement": "GI50", "setting": "H2452; NCI-H2452, 504 h, Day 21", "result": 5, "unit": "nM"}, {"measurement": "GI50", "setting": "H28; NCI-H28, 168 h, Day 7", "result": "> 2000", "unit": "nM"}, {"measurement": "GI50", "setting": "H28; NCI-H28, 336 h, Day 14", "result": 234, "unit": "nM"}, {"measurement": "GI50", "setting": "H28; NCI-H28, 504 h, Day 21", "result": 45, "unit": "nM"}, {"measurement": "GI50", "setting": "MSTO-211H; 168 h, Day 7", "result": "> 2000", "unit": "nM"}, {"measurement": "GI50", "setting": "MSTO-211H; 336 h, Day 14", "result": "> 2000", "unit": "nM"}, {"measurement": "GI50", "setting": "MSTO-211H; 504 h, Day 21", "result": "> 2000", "unit": "nM"}, {"measurement": "effect on tumor growth", "setting": "PXF 1118", "result": "slowed growth"}, {"measurement": "effect on tumor growth", "setting": "PXF 2443", "result": "slowed growth"}, {"measurement": "effect on tumor growth", "setting": "PXF 537", "result": "almost stasis"}, {"measurement": "maximum tumor growth inhibition (TGI)", "setting": "PXF 541", "result": "> 100", "unit": "%"}, {"measurement": "maximum tumor growth inhibition (TGI)", "setting": "PXF 680", "result": "> 100", "unit": "%"}, {"measurement": "effect on tumor growth", "setting": "PXF 2328", "result": "inactive"}, {"measurement": "PDX models with a relevant TGI of greater than 50%", "setting": "[2]", "result": "4 out of the 6"}]}]}
